Laboratory results taken from ChEMBL document CHEMBL4823249, “Discovery of a Pyrimidinedione Derivative as a Potent and Orally Bioavailable Axl Inhibitor” (J Med Chem, 2021).
Activity calls are given as the source filed them. The calls are words filed in the database; no cut-off is given here.

Assays:
[1] = molecular target: Dual specificity protein kinase CLK1 (Homo sapiens, UniProt P49759); test: Inhibition of human recombinant CLK1 (130 to end residues) using ERMRPRKRQGSVR as substrate incubated for 40 mins in presence of [gamma-33ATP] by radiometric scintillation counting analysis
[2] = molecular target: Ephrin type-A receptor 2 (Homo sapiens, UniProt P29317); test: Inhibition of recombinant human EphA2 (596 to 900 residues) using poly(Glu, Tyr) 4:1 as substrate incubated for 40 mins in presence of [gamma-33ATP] by scintillation counting based radiometry assay
[3] = tested on: HCC827; test: Antiproliferative activity against human HCC827 cells incubated for 72 hrs by SRB or CCK8 assay; assay type: functional, cell-based; conditions: HCC827, 72 h
[4] = molecular target: T1, Hepatocyte growth factor receptor (Homo sapiens, UniProt P08581); test: Inhibition of MET signaling in human MKN45 cells assessed as reduction in phosphorylation of ERK after 2 hrs by Western blotting analysis; assay type: cell-based; conditions: MKN-45, dose 10-100 nM
[5] = AUC(0 to t) in ICR mouse at 1 mg/kg, iv measured upto 24 hrs by LC-MS analysis; assay type: ADME, organism-based; design: route intravenous, dose 1 mg/kg, time <=24; conditions: in vivo
[6] = molecular target: Dual specificity mitogen-activated protein kinase kinase 1 (Homo sapiens, UniProt Q02750); test: Inhibition of recombinant human MEK1 using inactive MAPK2 as substrate incubated for 40 mins in presence of [gamma-33ATP] by scintillation counting based radiometry assay
[7] = AUC(0 to t) in Sprague-Dawley rat at 3 mg/kg, po measured upto 24 hrs by LC-MS analysis; assay type: ADME, organism-based; design: route oral, dose 3 mg/kg, time <=24; conditions: in vivo
[8] = Cmax in Sprague-Dawley rat at 3 mg/kg, po measured upto 24 hrs by LC-MS analysis; assay type: ADME, organism-based; design: route oral, dose 3 mg/kg, time <=24; conditions: in vivo
[9] = molecular target: Tyrosine-protein kinase JAK3 (Homo sapiens, UniProt P52333); test: Inhibition of recombinant human JAK3 (781 to end residues) using GGEEEEYFELVKKKK as substrate measured after 40 mins in presence of [gamm33P]ATP by scintillation counting method
[10] = AUC(0 to infinity) in Sprague-Dawley rat at 3 mg/kg, po measured upto 24 hrs by LC-MS analysis; assay type: ADME, organism-based; design: route oral, dose 3 mg/kg, time <=24; conditions: in vivo
[11] = molecular target: T1, Hepatocyte growth factor receptor; test: Inhibition of MET signaling in human EBC1 cells assessed as reduction in phosphorylation of ERK after 2 hrs by Western blotting analysis; assay type: cell-based; conditions: EBC-1, dose 10-100 nM
[12] = tested on: NCI-H1299; test: Inhibition of Gas6-stimulated cell migration in human NCI-H1299 cells at […] after 24 hrs by crystal violet staining based microscopic analysis; assay type: functional; conditions: dose lower 5.0 µM
[13] = AUC(0 to infinity) in ICR mouse at 1 mg/kg, iv measured upto 24 hrs by LC-MS analysis; assay type: ADME, organism-based; design: route intravenous, dose 1 mg/kg, time <=24; conditions: in vivo
[14] = tested on: NCI-H1975; test: Antiproliferative activity against human NCI-H1975 cells incubated for 72 hrs by SRB or CCK8 assay; assay type: functional, cell-based; conditions: NCI-H1975, 72 h
[15] = molecular target: Mitogen-activated protein kinase kinase kinase 20 (Homo sapiens, UniProt Q9NYL2); test: Inhibition of recombinant full-length human ZAK using MBP as substrate incubated for 40 mins in presence of [gamma33P]ATP by scintillation counting based radiometry assay
[16] = molecular target: T2, Tyrosine-protein kinase receptor UFO (Mus musculus) (UniProt Q00993); test: Inhibition of AXL in mouse BaF3/TEL-AXL cells assessed as reduction in phosphorylation of AKT at 1 to 15 nM after 2 hrs by Western blotting analysis; assay type: cell-based; conditions: dose 1-15 nM
T2 sequence (whole entry): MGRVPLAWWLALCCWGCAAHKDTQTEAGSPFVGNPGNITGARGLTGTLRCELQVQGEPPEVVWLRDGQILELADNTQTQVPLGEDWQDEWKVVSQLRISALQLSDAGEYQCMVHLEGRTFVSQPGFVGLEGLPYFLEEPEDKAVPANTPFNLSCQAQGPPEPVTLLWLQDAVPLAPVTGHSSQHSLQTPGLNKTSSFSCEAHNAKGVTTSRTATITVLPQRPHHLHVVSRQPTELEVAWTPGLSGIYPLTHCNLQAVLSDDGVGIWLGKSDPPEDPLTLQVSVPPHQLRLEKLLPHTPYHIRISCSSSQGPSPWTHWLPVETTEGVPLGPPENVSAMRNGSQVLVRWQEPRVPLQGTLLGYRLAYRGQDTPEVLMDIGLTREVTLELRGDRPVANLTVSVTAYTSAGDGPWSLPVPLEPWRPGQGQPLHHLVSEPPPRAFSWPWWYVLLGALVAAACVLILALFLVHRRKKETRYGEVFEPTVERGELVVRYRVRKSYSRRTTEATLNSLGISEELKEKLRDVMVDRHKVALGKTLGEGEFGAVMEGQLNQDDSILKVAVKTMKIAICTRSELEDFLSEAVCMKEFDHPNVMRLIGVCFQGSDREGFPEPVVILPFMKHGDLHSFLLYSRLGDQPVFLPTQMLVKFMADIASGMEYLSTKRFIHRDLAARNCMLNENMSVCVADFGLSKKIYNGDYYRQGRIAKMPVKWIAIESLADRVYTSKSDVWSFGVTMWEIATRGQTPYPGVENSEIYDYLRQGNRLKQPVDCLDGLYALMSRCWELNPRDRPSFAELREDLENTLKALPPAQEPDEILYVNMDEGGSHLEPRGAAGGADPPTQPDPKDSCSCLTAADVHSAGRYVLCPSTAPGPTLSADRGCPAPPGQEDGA

[17] = tested on: SNU-449; test: Inhibition of Gas6-stimulated cell invasion in human SNU-449 cells at […] after 24 hrs by crystal violet staining based microscopic analysis; assay type: functional; conditions: dose lower 5.0 µM
[18] = molecular target: Proto-oncogene tyrosine-protein kinase receptor Ret (Homo sapiens, UniProt P07949); test: Inhibition of recombinant human Ret (658 to end residues) using KKKSPGEYVNIEFG as substrate incubated for 40 mins in presence of [gamma33P]ATP by scintillation counting based radiometry assay
[19] = molecular target: Tyrosine-protein kinase receptor TYRO3 (Homo sapiens, UniProt Q06418); test: Inhibition of recombinant human RSE (451 to end residues) using KVEKIGEGTYGVVYK as substrate incubated for 40 mins in presence of [gamma33P]ATP by scintillation counting based radiometry assay
[20] = molecular target: T1, Hepatocyte growth factor receptor; test: Inhibition of recombinant human MET (974 to end residues) using KKKGQEEEYVFIE as substrate incubated for 40 mins in presence of [gamma-33ATP by scintillation counting based radiometry assay

T1 sequence (P08581 whole entry): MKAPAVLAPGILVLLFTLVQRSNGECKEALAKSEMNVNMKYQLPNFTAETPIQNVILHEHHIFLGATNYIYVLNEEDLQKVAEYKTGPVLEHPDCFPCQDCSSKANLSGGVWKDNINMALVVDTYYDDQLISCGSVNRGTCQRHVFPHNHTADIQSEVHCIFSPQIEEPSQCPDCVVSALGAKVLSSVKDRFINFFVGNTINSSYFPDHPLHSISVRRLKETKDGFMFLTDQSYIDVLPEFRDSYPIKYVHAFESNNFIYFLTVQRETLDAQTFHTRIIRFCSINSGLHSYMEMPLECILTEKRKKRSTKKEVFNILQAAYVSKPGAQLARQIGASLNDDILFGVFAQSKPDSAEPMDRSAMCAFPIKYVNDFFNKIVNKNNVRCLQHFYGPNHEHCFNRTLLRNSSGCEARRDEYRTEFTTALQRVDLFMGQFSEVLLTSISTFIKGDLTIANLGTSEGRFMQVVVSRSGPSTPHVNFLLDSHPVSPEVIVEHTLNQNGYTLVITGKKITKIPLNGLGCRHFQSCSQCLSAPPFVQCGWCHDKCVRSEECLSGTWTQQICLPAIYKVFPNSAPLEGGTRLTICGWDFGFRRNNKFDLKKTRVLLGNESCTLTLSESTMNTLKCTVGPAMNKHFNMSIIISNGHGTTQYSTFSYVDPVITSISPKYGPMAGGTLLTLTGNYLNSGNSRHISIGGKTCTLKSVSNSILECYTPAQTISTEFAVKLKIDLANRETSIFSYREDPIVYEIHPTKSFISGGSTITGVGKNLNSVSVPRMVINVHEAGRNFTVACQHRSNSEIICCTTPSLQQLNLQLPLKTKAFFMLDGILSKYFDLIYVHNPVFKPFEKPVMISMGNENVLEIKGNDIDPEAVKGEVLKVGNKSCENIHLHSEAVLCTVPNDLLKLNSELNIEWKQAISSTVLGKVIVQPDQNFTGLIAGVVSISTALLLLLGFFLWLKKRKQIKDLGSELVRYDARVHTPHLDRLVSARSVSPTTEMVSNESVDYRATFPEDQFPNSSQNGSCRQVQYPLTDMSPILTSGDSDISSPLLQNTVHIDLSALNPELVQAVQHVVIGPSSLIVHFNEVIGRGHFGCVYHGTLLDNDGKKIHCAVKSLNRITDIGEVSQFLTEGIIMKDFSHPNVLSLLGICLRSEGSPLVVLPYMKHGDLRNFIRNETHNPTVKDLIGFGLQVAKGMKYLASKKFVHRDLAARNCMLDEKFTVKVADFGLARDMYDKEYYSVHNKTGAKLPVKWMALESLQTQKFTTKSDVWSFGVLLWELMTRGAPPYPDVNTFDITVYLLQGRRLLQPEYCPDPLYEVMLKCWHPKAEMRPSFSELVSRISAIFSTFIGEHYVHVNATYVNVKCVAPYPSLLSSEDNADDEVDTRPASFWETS
Chain of Tyrosine-protein kinase JAK3 (P52333 whole entry): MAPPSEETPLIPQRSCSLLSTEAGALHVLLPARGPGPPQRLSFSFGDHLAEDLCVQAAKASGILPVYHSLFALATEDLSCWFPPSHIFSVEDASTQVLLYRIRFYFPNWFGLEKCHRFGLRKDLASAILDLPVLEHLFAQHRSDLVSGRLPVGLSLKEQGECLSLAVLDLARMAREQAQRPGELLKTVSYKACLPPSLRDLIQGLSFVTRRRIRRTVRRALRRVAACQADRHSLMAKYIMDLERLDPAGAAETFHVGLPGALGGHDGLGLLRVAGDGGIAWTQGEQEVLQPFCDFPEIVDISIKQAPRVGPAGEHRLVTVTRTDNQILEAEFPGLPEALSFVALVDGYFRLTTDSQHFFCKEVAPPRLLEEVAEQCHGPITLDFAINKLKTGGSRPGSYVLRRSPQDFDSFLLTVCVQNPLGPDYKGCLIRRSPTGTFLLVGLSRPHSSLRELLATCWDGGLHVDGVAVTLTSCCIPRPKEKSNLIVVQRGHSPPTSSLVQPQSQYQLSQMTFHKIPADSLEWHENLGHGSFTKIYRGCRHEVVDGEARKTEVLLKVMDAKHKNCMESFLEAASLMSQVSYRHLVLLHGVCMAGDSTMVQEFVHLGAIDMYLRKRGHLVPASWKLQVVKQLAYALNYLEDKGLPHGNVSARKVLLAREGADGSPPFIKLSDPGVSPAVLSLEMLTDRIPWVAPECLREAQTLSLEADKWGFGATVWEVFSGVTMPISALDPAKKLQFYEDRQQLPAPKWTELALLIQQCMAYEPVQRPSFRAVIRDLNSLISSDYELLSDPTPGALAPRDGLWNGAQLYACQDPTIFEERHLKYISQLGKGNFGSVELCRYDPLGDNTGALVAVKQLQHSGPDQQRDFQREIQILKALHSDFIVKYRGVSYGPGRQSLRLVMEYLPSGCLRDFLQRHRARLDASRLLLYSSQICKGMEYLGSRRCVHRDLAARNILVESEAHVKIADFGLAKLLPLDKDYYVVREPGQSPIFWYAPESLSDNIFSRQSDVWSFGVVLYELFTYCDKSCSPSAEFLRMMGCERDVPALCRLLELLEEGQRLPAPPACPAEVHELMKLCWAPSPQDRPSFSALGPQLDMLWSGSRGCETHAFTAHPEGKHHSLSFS
Chain of Ephrin type-A receptor 2 (P29317 whole entry, the tested form may be a part): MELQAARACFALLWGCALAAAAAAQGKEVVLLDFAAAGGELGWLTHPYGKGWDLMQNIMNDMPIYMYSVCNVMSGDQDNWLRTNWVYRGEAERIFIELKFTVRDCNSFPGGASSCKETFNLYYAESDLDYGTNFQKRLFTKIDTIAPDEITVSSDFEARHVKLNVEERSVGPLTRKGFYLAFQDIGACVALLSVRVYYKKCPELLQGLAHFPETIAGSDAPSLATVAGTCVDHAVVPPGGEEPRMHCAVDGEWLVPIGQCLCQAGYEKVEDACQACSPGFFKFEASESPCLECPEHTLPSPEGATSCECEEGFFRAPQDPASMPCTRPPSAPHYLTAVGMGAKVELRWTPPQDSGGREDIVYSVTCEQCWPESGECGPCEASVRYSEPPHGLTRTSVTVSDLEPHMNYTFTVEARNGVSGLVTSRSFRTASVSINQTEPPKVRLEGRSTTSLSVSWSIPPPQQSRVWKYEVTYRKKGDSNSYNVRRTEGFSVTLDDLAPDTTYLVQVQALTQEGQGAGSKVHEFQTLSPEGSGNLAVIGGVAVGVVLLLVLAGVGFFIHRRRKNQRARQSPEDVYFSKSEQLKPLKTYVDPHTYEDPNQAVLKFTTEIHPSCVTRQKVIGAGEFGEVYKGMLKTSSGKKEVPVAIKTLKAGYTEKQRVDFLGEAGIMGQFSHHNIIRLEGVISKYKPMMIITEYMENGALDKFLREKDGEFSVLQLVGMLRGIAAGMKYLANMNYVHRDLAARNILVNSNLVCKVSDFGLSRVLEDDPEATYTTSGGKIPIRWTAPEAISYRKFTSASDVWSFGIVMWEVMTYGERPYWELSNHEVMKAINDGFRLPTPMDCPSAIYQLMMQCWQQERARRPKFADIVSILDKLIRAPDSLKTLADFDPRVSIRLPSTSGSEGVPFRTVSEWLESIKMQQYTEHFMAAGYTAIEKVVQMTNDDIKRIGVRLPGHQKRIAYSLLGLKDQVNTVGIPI
Chain of Dual specificity mitogen-activated protein kinase kinase 1 (Q02750 whole entry): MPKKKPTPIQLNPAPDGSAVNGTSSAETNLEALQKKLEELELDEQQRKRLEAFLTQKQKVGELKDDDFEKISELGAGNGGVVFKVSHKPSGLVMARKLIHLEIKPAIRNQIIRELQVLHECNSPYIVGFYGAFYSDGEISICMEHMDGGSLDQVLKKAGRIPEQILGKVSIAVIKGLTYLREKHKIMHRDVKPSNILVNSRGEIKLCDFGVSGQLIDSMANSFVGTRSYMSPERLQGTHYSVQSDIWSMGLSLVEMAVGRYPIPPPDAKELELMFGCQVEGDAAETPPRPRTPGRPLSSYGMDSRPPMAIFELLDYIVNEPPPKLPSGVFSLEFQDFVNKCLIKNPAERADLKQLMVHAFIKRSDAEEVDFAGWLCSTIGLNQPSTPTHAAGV
Chain of Mitogen-activated protein kinase kinase kinase 20 (Q9NYL2 whole entry): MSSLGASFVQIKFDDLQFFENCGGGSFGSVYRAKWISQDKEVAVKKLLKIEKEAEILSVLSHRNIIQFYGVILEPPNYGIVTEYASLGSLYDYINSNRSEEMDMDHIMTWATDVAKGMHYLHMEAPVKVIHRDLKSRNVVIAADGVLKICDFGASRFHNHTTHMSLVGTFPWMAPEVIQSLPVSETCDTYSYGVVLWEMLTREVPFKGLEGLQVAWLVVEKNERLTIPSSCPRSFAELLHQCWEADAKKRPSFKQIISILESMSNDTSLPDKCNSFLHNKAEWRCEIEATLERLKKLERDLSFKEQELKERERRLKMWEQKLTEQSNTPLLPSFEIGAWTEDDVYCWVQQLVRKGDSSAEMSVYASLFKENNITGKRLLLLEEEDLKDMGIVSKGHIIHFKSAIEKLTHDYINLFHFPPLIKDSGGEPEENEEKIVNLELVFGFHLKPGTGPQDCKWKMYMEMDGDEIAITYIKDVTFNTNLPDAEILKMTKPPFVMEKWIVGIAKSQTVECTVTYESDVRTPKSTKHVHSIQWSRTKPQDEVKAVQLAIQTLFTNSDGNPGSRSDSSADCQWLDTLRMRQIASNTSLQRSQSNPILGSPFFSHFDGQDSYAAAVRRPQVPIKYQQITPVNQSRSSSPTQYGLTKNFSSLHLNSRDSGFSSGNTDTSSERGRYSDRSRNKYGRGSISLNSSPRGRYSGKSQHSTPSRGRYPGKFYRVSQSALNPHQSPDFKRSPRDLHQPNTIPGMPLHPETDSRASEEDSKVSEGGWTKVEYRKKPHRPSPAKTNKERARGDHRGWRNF

- IC50 [1]: > 1 µM
- IC50 [2]: > 0.1 µM
- IC50 [3]: > 10 µM
- inhibition [4]: Dose-Dependent Effect
- AUC(0-t) at 24 h [5]: 7010 ng·h/mL
- IC50 [6]: > 1 µM
- AUC(0-t) at 24 h [7]: 32600 ng·h/mL
- Cmax [8]: 4560 ng/mL
- IC50 [9]: > 1 µM
- AUC(0-inf) [10]: 43900 ng·h/mL
- inhibition [11]: Dose-Dependent Effect
- AUC(0-inf) [13]: 7360 ng·h/mL
- IC50 [14]: > 10 µM
- IC50 [15]: > 0.1 µM
- inhibition [16]: Active
- IC50 [18]: > 1 µM
- IC50 [19]: 0.001 µM
- IC50 [20]: 0.0008 µM
Structure (SMILES): CC(C)n1cc(C(=O)Nc2ccc(Oc3ccnc(NC(=O)C4CC4)c3)c(F)c2)c(=O)n(-c2ccc(F)cc2)c1=O
- inhibition [12]: Active
- inhibition [17]: Active
